Test results from patent publication US4761414A, “Substituted 1H-pyrimido[1,2-a-]-pyrido[3,4-e]pyrazine 6 oxides” (G. D. Searle & Co., priority 1986, dated 1988).
≈ marks a conversion by molar mass, not a printed value. Where a name gives a salt, the structure may show the parent alone. Read-outs that look alike come from different tables or passages of the source.

Key:
B. fragilis NCTC 9344 = assay: MIC/MBC against Bacteroides fragilis strain C; assay type: cell-based
Description: (§1) The screening panel utilized in this Example consisted of 5 strains of Bacteroides fragilis. All assays were carried out in 96-well microtitre plates. If an isolate was obtained from either a culture collection or clinical source, the isolate was immediately inoculated into Wilkens-Chalgren broth (Oxoid) and incubated at 37° C. in an anaerobic chamber in an atmosphere of 85% nitrogen, 10% carbon dioxide, and 5% hydrogen for 48 hours. At the end of this time, the viable count was about 10^12 organisms/ml broth. A 1 ml aliquot of each culture was placed in an ampoule and quick frozen in acetone-dry ice mixture and stored in liquid nitrogen. When an inoculum was utilized in an assay, one of the ampoules was thawed and diluted with fresh broth to yield a suspension having a count of 5×10^5 organisms/ml. A 100 μl aliquot of this suspension was inoculated into each well of the microtitre plate. A 2 mg sample of the test compound was dissolved in 0.2 ml of a suitable solvent such as dimethylsulfoxide, polyethylene glycol 200 or methanol. […] After addition of the test solution the final inoculum level was 10^5 cells/ml. The plates were incubated for 48 hours at 37° C. in the anaerobic chamber. The Minimum Inhibitory Concentration (MIC) was read visually. The MIC is defined as the lowest concentration at which there is no detectable growth. The Minimum Bactericidal Concentration (MBC) was determined by taking 50 μl aliquot from each well and placing it in fresh medium. […] The strains of Bacteroides fragilis utilized in the above procedure are identified by letter in accordance with the following legend: |C B. fragilis NCTC 9344

B. fragilis WS-1 = assay: MIC/MBC against Bacteroides fragilis strain E; assay type: cell-based
Description: as §1, with “|E” for “|C”, “WS-1*” for “NCTC 9344”

[1] = system: B. fragilis MZ-R ATCC 11295; assay: MIC/MBC against Bacteroides fragilis strain D; assay type: cell-based
Description: The screening panel utilized in this Example consisted of 5 strains of Bacteroides fragilis. All assays were carried out in 96-well microtitre plates. If an isolate was obtained from either a culture collection or clinical source, the isolate was immediately inoculated into Wilkens-Chalgren broth (Oxoid) and incubated at 37° C. in an anaerobic chamber in an atmosphere of 85% nitrogen, 10% carbon dioxide, and 5% hydrogen for 48 hours. At the end of this time, the viable count was about 10^12 organisms/ml broth. A 1 ml aliquot of each culture was placed in an ampoule and quick frozen in acetone-dry ice mixture and stored in liquid nitrogen. When an inoculum was utilized in an assay, one of the ampoules was thawed and diluted with fresh broth to yield a suspension having a count of 5×10^5 organisms/ml. A 100 μl aliquot of this suspension was inoculated into each well of the microtitre plate. A 2 mg sample of the test compound was dissolved in 0.2 ml of a suitable solvent such as dimethylsulfoxide, polyethylene glycol 200 or methanol. […] After addition of the test solution the final inoculum level was 10^5 cells/ml. The plates were incubated for 48 hours at 37° C. in the anaerobic chamber. The Minimum Inhibitory Concentration (MIC) was read visually. The MIC is defined as the lowest concentration at which there is no detectable growth. The Minimum Bactericidal Concentration (MBC) was determined by taking 50 μl aliquot from each well and placing it in fresh medium.

B. fragilis NCTC 9343 = assay: MIC/MBC against Bacteroides fragilis strain B; assay type: cell-based
Description: as §1, with “|B” for “|C”, “9343” for “9344”

B. fragilis NCTC 10581 = assay: MIC/MBC against Bacteroides fragilis strain A (96-well microtitre plates, anaerobic chamber); assay type: cell-based; conditions: for MBC / MIC: Bacteroides fragilis; for MBC: NCTC10581, 99.9% reduction in viable count; for MIC: NCTC10581, 48 h
Description: as §1, with “|A” for “|C”, “10581” for “9344”

B. fragilis 23745 = conditions: p.o., after infection and twice daily for 2 days; log CFU/ml liver homogenate; test compound; bishydrochloride
P. anaerobius = assay: MIC vs panel of anaerobes; assay type: cell-based; conditions: Peptostreptococcus anaerobius, procedures of Example 40
[2] = system: Clostridium perfringens NCTC 8237; assay: microbe, parasite or virus in culture; assay type: cell-based; conditions: Clostridium perfringens NCTC 8237; procedures of Example 40; bishydrochloride
[3] = system: Campylobacter fetus ss. jejuni ATCC 29428; assay: MIC vs panel of anaerobes; assay type: cell-based; conditions: ATCC29428, procedures of Example 40
[4] = system: Costridium difficile NCIB 10666; assay: MIC vs panel of anaerobes; assay type: cell-based, C. difficile; conditions: procedures of Example 40
[5] = system: B. melanogenicus ATCC 15032; assay: MIC vs panel of anaerobes; assay type: cell-based; conditions: procedures of Example 40
[6] = system: Campylobacter fetus ss. jejuni NCTC 10842; assay: MIC vs panel of anaerobes; assay type: cell-based; conditions: NCTC10842, procedures of Example 40
[7] = system: Fusobacterium necrophorum ATCC 11295; assay: MIC vs panel of anaerobes; assay type: cell-based; conditions: Fusobacterium necrophorum ATCC 11295; procedures of Example 40; bishydrochloride
[8] = system: Clostridium perfringens NCTC 523; assay: microbe, parasite or virus in culture; assay type: cell-based; conditions: Clostridium perfringens NCTC 523; procedures of Example 40; bishydrochloride
Peptostreptococcus = assay: MIC vs panel of anaerobes; assay type: cell-based; conditions: procedures of Example 40
Peptococcous magnus = assay: MIC vs panel of anaerobes; assay type: cell-based; conditions: procedures of Example 40

## CCC1(C)CN=C2C(c3ccc(C)cc3)=[N+]([O-])c3cccnc3N2C1 (stereo not shown) [Example 35, 2,3-Dihydro-2-ethyl-2-methyl-5-(4-methylphenyl)-1H-pyrimido[1,2-a]pyrido[3,2-e]pyrazine 6-oxide]
B. fragilis NCTC 9344; NCTC9344, 99.9% reduction in viable count
  MBC: < 0.8 µg/mL
B. fragilis NCTC 9344; NCTC9344, 48 h, 48 hours, 37° C., anaerobic
  MIC: < 0.8 µg/mL
B. fragilis WS-1; WS1, 99.9% reduction in viable count
  MBC: < 0.8 µg/mL
B. fragilis WS-1; WS1, 48 h, 48 hours, 37° C., anaerobic
  MIC: < 0.8 µg/mL
[1]; ATCC11295, 99.9% reduction in viable count
  MBC: < 0.8 µg/mL
[1]; ATCC11295, 48 h, 48 hours, 37° C., anaerobic
  MIC: < 0.8 µg/mL
B. fragilis NCTC 9343; NCTC9343, 99.9% reduction in viable count
  MBC: < 0.8 µg/mL
B. fragilis NCTC 9343; NCTC9343, 48 h, 48 hours, 37° C., anaerobic
  MIC: < 0.8 µg/mL
B. fragilis NCTC 10581
  MBC: < 0.8 µg/mL
B. fragilis NCTC 10581; 48 hours, 37° C., anaerobic
  MIC: < 0.8 µg/mL

## CC1(C)CN=C2C(c3ccccc3)=[N+]([O-])c3cccnc3N2C1 [Example 39, 2,3-dihydro-2,2-dimethyl-5-phenyl-1H-pyrimido[1,2-a]pyrido[3,2-e]pyrazine 6-oxide bishydrochloride]
B. fragilis 23745
  DOSE GIVING 1 LOG REDUCTION: 0.7 mg/kg
  DOSE GIVING 1 LOG REDUCTION (molar): 1.8 μM/Kg
P. anaerobius
  MIC: 100 µg/mL
[2]
  MIC: 6.2 µg/mL
[3]
  MIC: 50 µg/mL
[4]; C. difficile NCIB 10666, bishydrochloride
  MIC: 1.5 µg/mL
[5]
  MIC: 100 µg/mL
[6]
  MIC: 25 µg/mL
[7]
  MIC: 1.5 µg/mL
[8]
  MIC: 1.5 µg/mL

## Cc1ncc([N+](=O)[O-])n1CCO [Metronidazole, metronidazole, reference compound]
Peptostreptococcus
  MIC: 100 µg/mL (≈ 584 µM)
[4]; Clostridioides difficile, NCIB10666, C. difficile NCIB 10666, read-out: MIC
  MIC: < 0.8 µg/mL
[6]
  MIC: 3.1 µg/mL (≈ 18.1 µM)
Peptococcous magnus
  MIC: < 0.8 µg/mL
B. fragilis NCTC 10581; 99.9% reduction in viable count
  MBC, strain A: 1.5 µg/mL (≈ 8.76 µM)
B. fragilis NCTC 10581; 48 hours, 37° C., anaerobic
  MIC, strain A: 1.5 µg/mL (≈ 8.76 µM)
  MIC: < 0.8 µg/mL
B. fragilis NCTC 10581
  MBC: < 0.8 µg/mL
